# Earlier results, collected in US8039631B2, “Process for preparing crystalline form A of Lansoprazole” (Daewoong Pharmaceutical Co., Ltd., priority 2006, dated 2011).
# Like-named read-outs stand apart in the source and are kept apart here.
# Legend:
# [1] = not given; remark: listed apart in the source
conversion of Form B to Form A (at 40° C.),conversion of Form B to Form A (at a temperature of 10° C. or lower),change in the crystalline form on storage ([1]; at elevated temperature),stability when stored ([1]; stored for one year at a low temperature (0° C. or lower)),stability (change) when stored ([1]; stored for one year at room temperature or elevated temperature),SMILES
rapidly,slowly converted to Form A,some change in the crystalline form,high stability,,"Cc1c(OCC(F)(F)F)ccnc1C[S+]([O-])c1nc2ccccc2[nH]1 (centres unmarked) [Form B, Lansoprazole]"
,,,,does not change,"Cc1c(OCC(F)(F)F)ccnc1C[S+]([O-])c1nc2ccccc2[nH]1 (centres unmarked) [Form A, Lansoprazole]"
